Laboratory results as given in patent US20240287575A1, “Role of Human Pegivirus (HPGV) in Parkinson's Disease: Implications for Diagnosis and Treatment” (Northwestern University, priority 2023, published 2024).

Test system: normal human astrocytes (NHA)
Assay: Gene expression in NHA exposed to inflammatory cytokines (qPCR)
Assay type: cell-based
Conditions: for SNCA expression induction: NHA exposed to cytokine for 24 hours, no significant difference between infected and uninfected cells; for LCN2 expression induction: NHA, HPgV-infected and uninfected, exposed to cytokine for 24 hours
Method: As previously stated, iPSC-derived PD astrocytes show increased expression of LCN2 and GFAP following exposure to inflammatory conditions. Inflammation can additionally induce A1 phenotypic skewing in astrocytes.^4 Therefore, the analysis of mtDNA, PD astrocyte-associated genes, and A1/A2 skewing was repeated on NHA that were exposed to the inflammatory cytokine IL1β, IFNγ, or TNFα for 24 hours. mtDNA copy number was reduced in infected cells exposed to cytokines as compared to uninfected cells exposed to cytokines (FIG. 5A; IL1β p=0.0004; IFNγ p=0.001; TNFα p=0.03). […] SNCA expression was induced 10-fold following exposure to IL1β.
Normal human astrocytes (NHA): Cryopreserved NHA were obtained from Lonza. NHA were maintained in Astrocyte Basal Medium with Astrocyte Growth Medium SingleQuot supplements (Lonza). NHA were seeded at 5×10^3 cells/cm and allowed to reach confluency before splitting and seeding into new cell culture vessels, which took approximately 10 days. Medium was changed 24 hours after seeding and every subsequent 48 hours. NHA were discarded at passage 10.
Quantification of PD astrocyte associated gene expression was performed on similarly extracted RNA, following DNAse digestion and isopropanol precipitation. DNAse-treated RNA was resuspended in 50 μL of nuclease-free H2O, quantitated using the Qubit BR ssRNA kit, and diluted to 40 ng/μL. Commercially available TaqMan gene expression assays against GFAP (#Hs00909233; Fisher Scientific), LCN2 (#Hs01008571), SNCA (#Hs00240906), and ITPR2 (#Hs00181916), using FAM as a detector, were each multiplexed with GAPDH (housekeeping gene; #Hs02786624) using VIC as a detector. Each assay was run in duplicate 20 μL reactions, with 5 μL of diluted template RNA, 1 μL of each appropriate 20× assay, and 5 μL of TaqMan Fast Virus 1-step master mix. ΔΔCT was calculated as previously described.

IFNγ: inflammatory cytokine
SNCA expression induction: observed to a lesser extent

IL1β: inflammatory cytokine
SNCA expression induction: 10 fold | LCN2 expression induction: induced LCN2 expression in both infected and uninfected cells

TNFα
SNCA expression induction: observed to a lesser extent | LCN2 expression induction: significantly induced expression of LCN2 in infected cells but not uninfected cells
